# Results from patent US20220257580A1, “TREATMENT OF C3 GLOMERULOPATHY USING A C5A INHIBITOR” (CHEMOCENTRYX, INC., priority 2020, published 2022).
# “Also recorded” adds a separate entry of the source.
# Tests used:
# Type in all cases: in vivo, human
# [1] = system: patient with progressive complement 3 (C3) glomerulonephritis (recurrent C3GN in a renal transplant); test: Special Needs program study of compound 1 in one patient: eGFR and proteinuria; settings: for eGFR decline / eGFR: eGFR 83 mL/min/1.73 m^2 14 months prior, 46 at start of treatment
# From the text: Under the Special Needs program in the United Kingdom (which is similar to a compassionate use protocol in the US), a C3 glomerulonephritis patient received treatment with the orally administered complement inhibitor compound 1, following the protocol detailed below. The patient had refractory disease despite a kidney transplant and prior treatment with the broadly immunosuppressive drugs rituximab, cyclophosphamide, mycophenolate mofetil, tacrolimus, and steroids. Renal allograft biopsies were taken pre-dose, 2 and 7 months during therapy. The primary efficacy objective is to evaluate the efficacy of compound 1 based on change from baseline in eGFR (MDRD, Estimated Glomerular Filtration Rate) and proteinuria. This is a clinical study to test the safety, tolerability, and efficacy of compound 1 in a patient with recurrent […] in a renal transplant. The patient will have biopsy proven recurrent […] prior to start of dosing, and be deemed eligible based on the inclusion and exclusion criteria. Screening procedures will include recording of demographics, medical history, medication history, physical examination and vital signs, serum chemistry, hematology, urinalysis (including UPCR measurement), viral screening (if not performed within prior 12 weeks), and estimated glomerular filtration rate (eGFR) assessment based on serum creatinine. The baseline eGFR needs to be at least 25 mL/min/1.73 m^2 for study eligibility. On Day 1, the patient will start compound 1 treatment. Patients will take compound 1 30 mg orally twice daily for an initial period of 84 days. The patient will visit the study center on Days 1, 8, 15, 29, 57, and 85. The compound 1 dose will be taken in the morning optimally within one hour after breakfast and in the evening optimally within one hour after dinner. If the patient's clinical condition stabilizes or improves, and there are no adverse events preventing further treatment, the patient may be treated for another 84-day treatment cycle. The 84-day cycles may be repeated for a total of up to 4 cycles under this protocol. For the 84-day cycles after the first cycle, the patient will visit the study center every 4 weeks. There will be 4-week follow-up period after the patient stops the compound 1 treatment. Efficacy assessments include: • 1. First morning urinary PCR or ACR; • 2. eGFR by Modification of Diet in Renal Disease (MDRD) formula based on serum creatinine; • 3. Plasma and urine pharmacodynamic markers, e.g., MCP-1, C3a, C5a, properdin, and sC5b-9; • 4. Glomerular inflammation (e.g., crescents, inflammatory cell infiltrate, endocapillary proliferation) and C3 deposition in a follow-up renal biopsy sample;
# [2] = system: patients with C3 glomerulopathy; test: Phase 2 placebo-controlled study (ACCOLADE): safety and tolerability; settings: patients with C3G
# From the text: The secondary objectives of this study include assessment of: • 1. The safety of compound 1 compared to placebo based on the incidence of adverse events, changes in clinical laboratory measurements, and vital signs; • 2. Changes in laboratory parameters of renal disease including estimated glomerular filtration rate (eGFR), proteinuria, and urinary excretion of monocyte chemoattractant protein-1 (MCP-1) with compound 1 compared to placebo; • 3. Health-related quality-of-life changes based on Short Form-36 version 2 (SF-36 v2) and EuroQOL-5D-5L (EQ-5D-5L) with compound 1 compared to placebo; • 4. Evaluation of the pharmacokinetic profile of compound 1 in patients with C3 glomerulopathy.
# Safety assessments include adverse events, physical examination abnormalities, vital signs, and clinical laboratory tests (including blood chemistry, hematology, and urinalysis).
# Safety endpoints include: • 1. Patient incidence of treatment-emergent serious adverse events, adverse events, and withdrawals due to adverse events; • 2. Change from baseline and shifts from baseline in all safety laboratory parameters; • 3. Change from baseline in vital signs.
# [3] = system: patients with C3 glomerulopathy; test: Phase 2 placebo-controlled study (ACCOLADE): C3G Histologic Index from kidney biopsies
# Method: The primary objective is to evaluate the efficacy of compound 1 compared to placebo based on histologic changes in C3G pathology from kidney biopsies taken before and during treatment. Patients will then be randomized, 1:1, to receive 30 mg compound 1 twice daily or matching placebo for 26 weeks in a double-blind, placebo-controlled manner. The 26-week double-blind period will be followed by a 26-week period during which all patients will receive compound 1 treatment. Efficacy assessments include: • 1. Renal histology to determine the C3G Histologic Index (CHI) for disease activity and chronicity; • 2. eGFR calculated by the Modification of Diet in Renal Disease (MDRD) equation from serum creatinine; • 3. First morning urinary PCR; • 4. First morning urinary MCP-1:creatinine ratio; • 5. EQ-5D-5L and SF-36 v2. All renal biopsies will also be analyzed based on hematoxylin-eosin (H&E) staining, periodic acid-Schiff (PAS) staining, trichrome, and Jones methenamine silver staining. These renal biopsies will be evaluated by a central reader, blinded to treatment assignment from either slides or high-resolution electronic images. The central reader will determine the degree of disease activity and chronicity. The primary efficacy endpoint is the percent change from baseline to week 26 in the C3G Histologic Index (CHI) for disease activity. The compound 1 and placebo groups will be compared by ANCOVA with treatment group and randomization strata (C3GN or DDD, and renal transplant or not) as factors, and baseline as covariate. Point estimates and corresponding 95% confidence intervals will be estimated for the difference between the compound 1 and placebo control group. Other efficacy endpoints include: • 1. The percent change from baseline in the CHI for disease chronicity over the placebo-controlled 26-week treatment period; • 2. The change and percent change from baseline in eGFR over the placebo-controlled 26-week treatment period; • 3. The percent change from baseline in urinary PCR over the placebo-controlled 26-week treatment period; • 4. The percent change from baseline in urinary MCP-1:creatinine ratio over the placebo-controlled 26-week treatment period; • 5. Change from baseline in EQ-5D-5L and SF-36 v2 (domains and component scores) over the placebo-controlled 26-week treatment period. The primary endpoint of the study was change from baseline to week 26 in the C3G Histologic Index for Disease Activity, comparing the changes in kidney histology from biopsy sections taken from patients characterized by elevated levels of C5b-9 complement markers in the blood at time of study entry (baseline).
# [4] = system: patient with progressive complement 3 (C3) glomerulonephritis (recurrent C3GN in a renal transplant); test: Special Needs program study of compound 1 in one patient: renal allograft biopsy histology; settings: for Endocapillary hypercellularity/total: pre-treatment 3/11; for CD68-positive cells/glomerulus: pre-treatment 11; for Immunoflourescence microscopy, IgM: pre-treatment trace
# From the text: Under the Special Needs program in the United Kingdom (which is similar to a compassionate use protocol in the US), a C3 glomerulonephritis patient received treatment with the orally administered complement inhibitor compound 1, following the protocol detailed below. The patient had refractory disease despite a kidney transplant and prior treatment with the broadly immunosuppressive drugs rituximab, cyclophosphamide, mycophenolate mofetil, tacrolimus, and steroids. Renal allograft biopsies were taken pre-dose, 2 and 7 months during therapy. At the Day 1 and post-Day 1 study visits, blood and urine samples will be collected for safety, efficacy, and pharmacokinetic measurements. Physical examinations and vital signs assessments will be performed throughout the study. Concomitant medication and adverse event assessments will be made at every study visit. If at all possible, a renal biopsy will be performed after an appropriate follow-up period to assess the changes in kidney histology. Efficacy assessments include: • 1. First morning urinary PCR or ACR; • 2. eGFR by Modification of Diet in Renal Disease (MDRD) formula based on serum creatinine; • 3. Plasma and urine pharmacodynamic markers, e.g., MCP-1, C3a, C5a, properdin, and sC5b-9; • 4. Glomerular inflammation (e.g., crescents, inflammatory cell infiltrate, endocapillary proliferation) and C3 deposition in a follow-up renal biopsy sample; Renal biopsies will be analyzed by periodic acid-Schiff (PAS) staining, immunofluorescence staining for C3, C5b-9, and potentially other markers. Electron microscopy may also be performed.
# [5] = system: patients with C3 glomerulopathy; test: Phase 2 placebo-controlled study (ACCOLADE): eGFR, urinary PCR, urinary MCP-1:creatinine ratio
# From the text: The secondary objectives of this study include assessment of: • 1. The safety of compound 1 compared to placebo based on the incidence of adverse events, changes in clinical laboratory measurements, and vital signs; • 2. Changes in laboratory parameters of renal disease including estimated glomerular filtration rate (eGFR), proteinuria, and urinary excretion of monocyte chemoattractant protein-1 (MCP-1) with compound 1 compared to placebo; • 3. Health-related quality-of-life changes based on Short Form-36 version 2 (SF-36 v2) and EuroQOL-5D-5L (EQ-5D-5L) with compound 1 compared to placebo; • 4. Evaluation of the pharmacokinetic profile of compound 1 in patients with C3 glomerulopathy. Patients will then be randomized, 1:1, to receive 30 mg compound 1 twice daily or matching placebo for 26 weeks in a double-blind, placebo-controlled manner. The 26-week double-blind period will be followed by a 26-week period during which all patients will receive compound 1 treatment. Efficacy assessments include: • 1. Renal histology to determine the C3G Histologic Index (CHI) for disease activity and chronicity; • 2. eGFR calculated by the Modification of Diet in Renal Disease (MDRD) equation from serum creatinine; • 3. First morning urinary PCR; • 4. First morning urinary MCP-1:creatinine ratio; • 5. EQ-5D-5L and SF-36 v2. Other efficacy endpoints include: • 1. The percent change from baseline in the CHI for disease chronicity over the placebo-controlled 26-week treatment period; • 2. The change and percent change from baseline in eGFR over the placebo-controlled 26-week treatment period; • 3. The percent change from baseline in urinary PCR over the placebo-controlled 26-week treatment period; • 4. The percent change from baseline in urinary MCP-1:creatinine ratio over the placebo-controlled 26-week treatment period; • 5. Change from baseline in EQ-5D-5L and SF-36 v2 (domains and component scores) over the placebo-controlled 26-week treatment period. Continuous variables, including eGFR, urinary PCR, urinary MCP-1:creatinine ratio, EQ-5D-5L, and SF-36 v2 will be analyzed using a mixed effects model for repeated measures ([…]) with treatment group, visit, treatment-by-visit interaction, and randomization strata (C3GN or DDD, and renal transplant or not) as factors, and baseline as covariate. Patients will be considered as repeated measure units over visits. Point estimates and corresponding 95% confidence intervals will be estimated for the difference between the compound 1 group and the control group across 26 weeks using simple contrast from the model. Similar to the primary endpoint, the second 26 weeks will be compared to the first 26 weeks for the placebo group.
smiles,measurement,setting,value
"Cc1ccc(NC(=O)[C@H]2CCCN(C(=O)c3c(C)cccc3F)[C@H]2c2ccc(NC3CCCC3)cc2)cc1C(F)(F)F [Compound 1, avacopan]",eGFR decline,[1]; after 1 month of treatment,attenuated
same,Proteinuria drop,"[1]; single C3GN patient, compound 1 30 mg orally twice daily",approximately 80%
same,eGFR decline / eGFR,[1]; single C3GN patient,stabilized eGFR
same,eGFR decline / eGFR,"[1]; single C3GN patient, listed as compound 1",attenuated or stopped
same,safety and tolerability,[2],safe and well-tolerated
same,"C3G Index for Disease Chronicity, higher change in placebo group than avacopan",[3]; baseline to Week 26,26 percentage point
same,"C3G Histologic Index for Disease Chronicity, change from baseline","[3]; baseline to Week 26, increase = worsening, placebo 58%",32%
same,"C3G Histologic Index for Disease Activity (C3G Activity Score), improvement on average","[3]; baseline to week 26, all C3G subjects (elevated and normal C5b-9), placebo worsened by 26%",6%
same,"C3G Activity Score, average difference between the two treatment arms","[3]; baseline to week 26, elevated C5b-9 patients, avacopan vs placebo, not statistically significant",approximately 40%
same,"C3G Histologic Index for Disease Activity (C3G Activity Score), improvement on average","[3]; baseline to week 26, patients with elevated C5b-9 at baseline, placebo worsened by 38%",2%
same,"C3G Histologic Index for Disease Chronicity, mean change from baseline","[3]; baseline to week 26, placebo 1.6, P<0.05",0.8
same,Endocapillary hypercellularity/total,[4]; 2 months of therapy,0/36
same,CD68-positive cells/glomerulus,[4]; 2 months of therapy,2-3
same,"Immunoflourescence microscopy, IgM",[4]; 2 months of therapy,neg
same,Endocapillary hypercellularity/total,[4]; 7 months of therapy,0/14
same,CD68-positive cells/glomerulus,[4]; 7 months of therapy,1-2
same,"Immunoflourescence microscopy, IgM",[4]; 7 months of therapy,neg
same,glomerular inflammation,[4]; on-treatment biopsy compared to pre-treatment,reduced glomerular inflammation
same,glomerular endocapillary proliferation / hypercellularity,[4]; on-treatment kidney biopsy compared to pre-treatment biopsy,clearance of glomerular endocapillary proliferation; also recorded: resolution of glomerular endocapillary hypercellularity; also recorded: reduction in endocapillary hypercellularity
same,glomerular inflammatory macrophages,"[4]; on-treatment kidney biopsy compared to pre-treatment biopsy, CD68 staining",marked decrease; also recorded: reduction in glomerular macrophages
same,Urinary MCP-1:Creatinine Ratio Percent Change from Baseline,"[5]; 26-week treatment period, placebo 1%",−12%
same,Urinary Protein:Creatinine Ratio (Proteinuria) Percent Change from Baseline,"[5]; 26-week treatment period, placebo −14%",−26%
same,eGFR improvement from baseline,"[5]; 26 weeks, subjects with eGFR <60 mL/min/1.73 m^2 at baseline, placebo 6% worsening, P=0.0199",13%
same,eGFR mean increase,"[5]; 26 weeks, subjects with eGFR <60 mL/min/1.73 m^2 at baseline, placebo decrease of 1.4",about 5 mL/min/1.73 m^2
same,eGFR average increase relative to placebo,"[5]; after 26 weeks, subjects with eGFR <60 mL/min/1.73 m^2 at baseline",~20%
same,eGFR improvement on average from baseline,"[5]; baseline to week 26, overall, placebo worsened by 6%, P=0.0221",5%
same,UPCR (proteinuria) reduction from baseline,"[5]; end of 26 weeks, placebo 14%",26%
same,urinary MCP-1 creatinine ratio versus the placebo group,[5]; throughout the 26-week treatment period,consistently exhibiting lower levels
same,UPCR (proteinuria) mean decrease from baseline,"[5]; week 16, placebo 1% decrease, P<0.05",35%
